Bounds are passed on as bounds.

In assay [1] the test system is Mycobacterium tuberculosis. As to the kind of experiment: Antitubercular activity against Mycobacterium tuberculosis H37Rv by microplate alamar blue assay. In kind it is functional, organism-based. Background: The colour change of resazurin is a common sign of viable cells or microbes.
The next assay deals with Plasmodium falciparum. Put plainly: Antiprotozoal activity against Plasmodium falciparum K1 infected in human erythrocytes at 4.8 ug/m after 72 hrs by [3H]hypoxanthine incorporation. In kind it is functional.
A further assay concerns Trypanosoma cruzi. Put plainly: Antiprotozoal activity against Trypanosoma cruzi Tulahuen C2C4 infected in rat skeletal myoblast at 4.8 ug/ml after 48 hrs. It counts as functional. The following applies: Tulahuen C2C4, 48 h.
The test system of assay [2] is Trypanosoma brucei rhodesiense. As to the kind of experiment: Antiprotozoal activity against Trypanosoma brucei rhodesiense STIB900 at 4.8 ug/mL by microplate alamar blue assay. It counts as functional.
A further assay relates to Leishmania donovani. Put plainly: Antiprotozoal activity against Leishmania donovani MHOM/ET/67/L82 at 4.8 ug/m after 72 hrs by fluorimetry. It counts as functional.

With `O=C1OC(NCC(O)CO)C(Cl)=C1Cl` (stereo unspecified), in assay [1], the half-inhibitory concentration (IC50) is above 100 µg/mL and the IC90 was above 100 µg/mL.

As for `C[C@@H]1CC[C@H]2[C@@H](C)C(=O)O[C@@H]3O[C@@]4(C)CC[C@@H]1[C@]32OO4` [ARTEMISININ], the “inhibition (INH)” value in the assay with Plasmodium falciparum is on record as 100%.

`O=C(Cn1ccnc1[N+](=O)[O-])NCc1ccccc1` [BENZNIDAZOLE] showed an inhibition at 4.8 µg/mL in the assay on Trypanosoma cruzi of 89.6%.

For `Nc1nc(N)nc(Nc2ccc([As]3SCC(CO)S3)cc2)n1` (stereo unspecified) [MELARSOPROL], 4.8 µg/mL produced 98.2% inhibition in assay [2].

Regarding `CCCCCCCCCCCCCCCCOP(=O)([O-])OCC[N+](C)(C)C` [MILTEFOSINE], the “inhibition (INH)” value with Leishmania donovani turned out to be 92.5%.

By IC50 is commonly meant the concentration that gives 50% inhibition. Higher therefore signals lower potency. Broadly, the IC90 is the concentration at which the effect reaches the 90% level. Low values mean greater potency, high ones weaker potency. Usually inhibition stands for the percentage by which the read-out fell short of the control. Read a low inhibition as a response near the control.

The record behind these values is ChEMBL document CHEMBL1240432, “Synthesis and preliminary bioactivity assays of 3,4-dichloro-5-(omega-hydroxyalkylamino)-2(5H)-furanones” (Eur J Med Chem, 2010).
